Earlier results on 1 molecule are cited in article PMC9851200, “Multiparameter phenotypic screening for endogenous TFEB and TFE3 translocation identifies novel chemical series modulating lysosome function” (Autophagy, 2022).

Common to all, as to design: method as in original PKIS2 published data
Series [1] concerns the target T1, kinases (KINOMEscan panel) (Homo sapiens, UniProt P41743).
T1 sequence (P41743 1-596): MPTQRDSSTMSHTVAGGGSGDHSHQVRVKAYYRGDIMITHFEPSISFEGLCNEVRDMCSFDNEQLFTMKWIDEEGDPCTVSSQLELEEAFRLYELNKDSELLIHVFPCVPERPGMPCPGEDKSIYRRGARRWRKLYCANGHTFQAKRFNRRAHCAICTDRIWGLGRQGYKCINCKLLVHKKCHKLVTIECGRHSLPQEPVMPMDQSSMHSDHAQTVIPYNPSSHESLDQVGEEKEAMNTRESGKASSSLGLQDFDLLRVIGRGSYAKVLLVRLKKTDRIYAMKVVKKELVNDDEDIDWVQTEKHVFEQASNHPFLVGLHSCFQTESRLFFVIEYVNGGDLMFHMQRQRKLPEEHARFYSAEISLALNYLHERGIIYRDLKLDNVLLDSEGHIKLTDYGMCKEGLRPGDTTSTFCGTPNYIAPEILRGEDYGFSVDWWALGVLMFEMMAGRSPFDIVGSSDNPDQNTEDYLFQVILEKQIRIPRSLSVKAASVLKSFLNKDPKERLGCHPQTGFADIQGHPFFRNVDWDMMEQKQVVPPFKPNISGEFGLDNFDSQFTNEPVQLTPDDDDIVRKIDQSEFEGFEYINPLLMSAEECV
As to conditions: PRKCI; Published KINOMEscan; ref original PKIS2 published data; cited from earlier work.

For series [2], the target named is kinases (KINOMEscan panel) (Homo sapiens, UniProt P11309). As to conditions: Published KINOMEscan; ref original PKIS2 published data; cited from earlier work.
kinases (KINOMEscan panel) (Homo sapiens, UniProt P11309), sequence (P11309 whole entry): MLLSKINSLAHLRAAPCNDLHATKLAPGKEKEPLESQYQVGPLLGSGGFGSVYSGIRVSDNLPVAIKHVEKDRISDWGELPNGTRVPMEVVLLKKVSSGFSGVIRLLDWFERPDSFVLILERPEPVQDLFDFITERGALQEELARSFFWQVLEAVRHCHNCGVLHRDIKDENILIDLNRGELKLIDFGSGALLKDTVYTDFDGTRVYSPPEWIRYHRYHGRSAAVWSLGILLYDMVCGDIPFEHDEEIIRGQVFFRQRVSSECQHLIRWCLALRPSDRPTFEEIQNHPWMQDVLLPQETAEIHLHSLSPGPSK
The target of series [3] is T2, kinases (KINOMEscan panel) (Homo sapiens, UniProt Q96BR1).
T2 sequence (Q96BR1 1-496): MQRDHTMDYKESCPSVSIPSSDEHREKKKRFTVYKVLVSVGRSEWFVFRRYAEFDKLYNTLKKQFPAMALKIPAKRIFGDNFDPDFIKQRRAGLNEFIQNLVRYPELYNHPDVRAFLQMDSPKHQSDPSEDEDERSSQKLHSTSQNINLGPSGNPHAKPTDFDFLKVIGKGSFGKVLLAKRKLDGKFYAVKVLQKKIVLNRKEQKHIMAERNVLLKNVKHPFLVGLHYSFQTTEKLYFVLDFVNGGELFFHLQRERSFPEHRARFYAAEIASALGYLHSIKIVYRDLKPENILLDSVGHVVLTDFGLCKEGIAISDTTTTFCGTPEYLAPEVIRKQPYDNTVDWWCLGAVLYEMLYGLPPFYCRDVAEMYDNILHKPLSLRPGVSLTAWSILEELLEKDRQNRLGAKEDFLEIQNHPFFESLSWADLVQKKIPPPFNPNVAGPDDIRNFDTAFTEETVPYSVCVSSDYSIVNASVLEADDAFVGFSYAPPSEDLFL
As to conditions: kinase SGK3; Published KINOMEscan; ref original PKIS2 published data; cited from earlier work.

In series [4] the target is T3, kinases (KINOMEscan panel) (Homo sapiens, UniProt Q8IW41).
T3 sequence (Q8IW41 1-473): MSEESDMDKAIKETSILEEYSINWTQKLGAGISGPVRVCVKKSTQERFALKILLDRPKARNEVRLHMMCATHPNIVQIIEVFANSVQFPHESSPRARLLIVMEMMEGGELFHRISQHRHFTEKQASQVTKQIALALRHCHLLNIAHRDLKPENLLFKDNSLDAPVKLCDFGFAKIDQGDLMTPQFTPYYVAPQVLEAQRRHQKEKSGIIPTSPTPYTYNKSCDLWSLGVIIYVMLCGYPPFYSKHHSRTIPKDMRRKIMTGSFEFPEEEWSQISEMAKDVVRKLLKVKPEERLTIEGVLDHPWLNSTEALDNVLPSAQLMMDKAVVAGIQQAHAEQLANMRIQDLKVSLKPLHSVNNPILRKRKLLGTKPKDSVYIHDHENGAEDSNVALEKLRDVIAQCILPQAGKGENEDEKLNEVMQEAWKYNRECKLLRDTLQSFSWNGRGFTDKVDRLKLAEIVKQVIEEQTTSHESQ
As to conditions: MAPKAPK5; Published KINOMEscan; ref original PKIS2 published data; cited from earlier work.

On to `Cc1cccc(-c2nc(Nc3ccncc3)c3ccccc3n2)n1` [NK215], for which the “KINOMEscan PRKCI” value in series [1] was 32. Besides, the “KINOMEscan PIM1” value in series [2] is recorded as 0. The “KINOMEscan SGK3” value in series [3] is recorded as 0. Further, in series [4], the “KINOMEscan MAPKAPK5” value is given as 0.
